According to ChEMBL document CHEMBL1201862, “PubChem BioAssay data set” (2004):
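Method: 48-hour compound exposure of cells in 96-well plates, five concentrations, linear interpolation of endpoints. Here, GI50 denotes the concentration required for 50% inhibition of growth.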 The source made the active and inactive calls. Rule as the data show it: active = GI50 up to about 1.1 µM and inactive = higher.

How the values were obtained:
Assay in all cases: NCI anticancer screen, dose series, 48 h
[1] = tested on: A549
[2] = tested on: ACHN
[3] = tested on: BT-549
[4] = tested on: CAKI-1
[5] = tested on: CCRF-CEM
[6] = tested on: COLO 205
[7] = tested on: DU-145
[8] = tested on: EKVX
[9] = tested on: HCC 2998
[10] = tested on: HCT-116
[11] = tested on: HOP-62
[12] = tested on: HOP-92
[13] = tested on: HT-29
[14] = tested on: Hs-578T
[15] = tested on: IGROV-1
[16] = tested on: K562
[17] = tested on: KM12
[18] = tested on: LOX IMVI
[19] = tested on: M14
[20] = tested on: MCF7
[21] = tested on: MDA-MB-231
[22] = tested on: MDA-MB-435
[23] = tested on: MDA-N
[24] = tested on: MOLT-4
[25] = tested on: Malme-3M
[26] = tested on: NCI-H226
[27] = tested on: NCI-H23
[28] = tested on: NCI-H460
[29] = tested on: NCI/ADR-RES
[30] = tested on: OVCAR-3
[31] = tested on: OVCAR-4
[32] = tested on: OVCAR-5
[33] = tested on: OVCAR-8
[34] = tested on: PC-3
[35] = tested on: RPMI-8226
[36] = tested on: RXF 393
[37] = tested on: SF-268
[38] = tested on: SF-295
[39] = tested on: SF-539
[40] = tested on: SK-MEL-28
[41] = tested on: SK-MEL-2
[42] = tested on: SK-MEL-5
[43] = tested on: SN12C
[44] = tested on: SNB-19
[45] = tested on: SNB-75
[46] = tested on: SR
[47] = tested on: SW-620
[48] = tested on: T47D
[49] = tested on: TK-10
[50] = tested on: U-251
[51] = tested on: UACC-257
[52] = tested on: UACC-62
[53] = tested on: UO-31
[54] = tested on: 786-0
[55] = tested on: HCT-15
[56] = tested on: HL-60
[57] = tested on: SK-OV-3

Measured: GI50

Cc1cc(C)c(S(=O)(=O)N(CCCCCN)OCCCN)c(C)c1
inactive: [1] 19 µM | [2] 19.5 µM | [3] 17.4 µM | [4] 17.4 µM | [5] 20.7 µM | [6] 20.2 µM | [7] 16.7 µM | [8] 15.9 µM | [9] 7.14 µM | [10] 17.9 µM | [11] 16.5 µM | [12] 15.9 µM | [13] 14.1 µM | [14] 22 µM | [15] 13.9 µM | [16] 17 µM | [17] 19 µM | [18] 17.7 µM | [19] 18.3 µM | [20] 17.1 µM | [21] 31.7 µM | [22] 18.2 µM | [23] 16.7 µM | [24] 14.4 µM | [25] 23.4 µM | [26] 14.8 µM | [27] 18.3 µM | [28] 16.8 µM | [29] 18 µM | [30] 17.5 µM | [31] 21.5 µM | [32] 17.9 µM | [33] 18.8 µM | [34] 14.7 µM | [35] 11.7 µM | [36] 10.3 µM | [37] 20.3 µM | [38] 15.1 µM | [39] 11.9 µM | [40] 16.9 µM | [41] 17.9 µM | [42] 16.3 µM | [43] 18.1 µM | [44] 20.3 µM | [45] 15.3 µM | [46] 12.7 µM | [47] 19 µM | [48] 20.6 µM | [49] 17 µM | [50] 18.3 µM | [51] 17.1 µM | [52] 17.7 µM | [53] 14.1 µM

CC(C)CC1NC(=O)CCC(NC(=O)C(Cc2ccc(O)cc2)NC(=O)OCc2ccccc2)C(=O)NC(Cc2ccccc2)C(=O)NC(Cc2ccccc2)NC1=O (stereo not given)
active: [57] 0.578 µM
> 100 µM: [55]
inactive: [54] > 100 µM | [1] > 100 µM | [2] > 100 µM | [3] > 100 µM | [4] > 100 µM | [5] > 100 µM | [6] > 100 µM | [7] > 100 µM | [8] > 100 µM | [9] > 100 µM | [10] > 100 µM | [56] > 100 µM | [11] > 100 µM | [12] > 100 µM | [13] > 100 µM | [14] > 100 µM | [15] > 100 µM | [16] > 100 µM | [17] > 100 µM | [18] > 100 µM | [19] > 100 µM | [20] > 100 µM | [21] > 100 µM | [22] > 100 µM | [23] > 100 µM | [24] > 100 µM | [25] > 100 µM | [26] > 100 µM | [27] > 100 µM | [28] > 100 µM | [29] > 100 µM | [30] > 100 µM | [31] > 100 µM | [32] > 100 µM | [33] > 100 µM | [34] > 100 µM | [35] > 100 µM | [36] > 100 µM | [37] > 100 µM | [38] > 100 µM | [39] > 100 µM | [40] > 100 µM | [41] > 100 µM | [42] > 100 µM | [43] > 100 µM | [44] 56.6 µM | [45] > 100 µM | [46] > 100 µM | [47] > 100 µM | [48] > 100 µM | [49] > 100 µM | [50] > 100 µM | [51] > 100 µM | [52] > 100 µM | [53] > 100 µM
